Data reported in patent US9422247B2, “Fe(III) complex compounds for the treatment and prophylaxis of iron deficiency symptoms and iron deficiency anemias” (Vifor (International) AG, priority 2011, dated 2016).

Tested on: Male NMRI (SPF) mice
Experiment: iron utilization in mouse model (low-iron diet)
Assay type: in vivo
Settings: iron-deficient male NMRI mice; stomach tube, 2 mg iron/kg body weight/day, days 1-5 and 8-12; utilization on day 15 calculated from hemoglobin and body weight increase
Procedure: The excellent Fe utilizations that can be accomplished through the Fe complexes according to the invention were measured by means of the following mouse model. Male NMRI (SPF) mice (approximately 3 weeks old) were fed a low-iron diet (approx. 5 ppm iron) for approximately 3 weeks. The iron complexes were then administered to them by means of a stomach tube (2 mg iron/kg body weight/day) for 2 times 5 days, with an interruption of 2 days (days 1-5 and 8-12). Utilization on day 15 was calculated from the hemoglobin increase and the body weight increase in accordance with the formula […] Control group, utilized from food, (mg Fe)

| Substance | Utilization n 15 d (abs. %) |
| --- | --- |
| Tris-(4,6-diethylpyrimidine-2-ol-1-oxide)-iron(III) complex [Example 4] | 76 abs. % |
| Tris-(5,6-dimethylpyrimidine-2-ol 1-oxide)-iron(III) complex [Example 16] | 57 abs. % |
| Tris-(4,6-dimethylpyrimidine-2-ol-1-oxide)-iron(III) complex [Example 3] | 74 abs. % |
| Tris-(4-methylpyrimidine-2-ol-oxide)-iron(III) complex [Example 2] | 80 abs. % |
| Tris-(4-methyl-6,7-dihydro-5H-cyclopenta[d]pyrimidin-2-ol-1-oxide)-iron(III) complex [Example 10] | 70 abs. % |
| Tris-(6-ethyl-4-methylpyrimidin-2-ol-1-oxide)-iron(III) complex [Example 9] | 69 abs. % |
| Tris-(pyrimidine-2-ol-1-oxide)-iron(III) complex [Example 1] | 89 abs. % |
| Tris-(4-methyl-5,6,7,8-tetrahydrochinazoline-2-ol-3-oxide)-iron(III) complex [Example 11] | 74 abs. % |
| Tris-(4-ethylpyrimidine-2-ol-1-oxide)-iron(III) complex [Example 8] | 82 abs. % |
| Tris-(5-chloro-4,6-dimethylpyrimidine-2-ol-1-oxide)-iron(III) complex [Example 7] | 64 abs. % |
| Tris-(4,5,6-trimethylpyrimidine-2-ol-1-oxide)-iron(III) complex [Example 6] | 70 abs. % |
| Tris-(4-propane-2-yl)pyrimidine-2-ol-1-oxide)-iron(III) complex [Example 12] | 55 abs. % |
